Patent US20250129028A1, “COMPOUNDS AND METHODS FOR YAP/TEAD MODULATION AND INDICATIONS THEREFOR” (Opna Bio SA, priority 2022, published 2025)

test system: TEAD-dependent transcription; test: TEAD-dependent transcription cell-based reporter assay (MSTO-211H+12XGTIIC luciferase); set-up: species or system human; details: Homo sapiens; MSTO-211H+12XGTIIC cell line, luciferase signal normalized to cell viability, 24 hours compound incubation; read-out: MSTO-211H GMean IC50 (uM) Cell Assay Reporter Cell Variant: TEAD
Method in brief: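 MSTO-211H mesothelioma cells stably carrying a 12xGTIIC TEAD-response-element luciferase reporter, treated with serial compound dilutions for 24 h at 37 °C. Luminescence normalized to CellTiter-Fluor viability signal; % inhibition versus DMSO and 20 μM K-975 controls, IC50 by nonlinear regression.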

Row | Structure (SMILES) | IC50 [µM]
1 | CC(=O)N1CCC(C2c3cc(Oc4ccc(C(F)(F)F)cc4)ccc3CCN2C(=O)CCS(C)(=O)=O)C1 (centres unmarked) [P-0203, 1-(1-(1-acetylpyrrolidin-3-yl)-7-(4-(trifluorometh-yl)phenoxy)-3,4-dihydro-isoquinolin-2(1H)-yl)-3-(methylsulfonyl)-propan-1-one] | 0.001 to 10
2 | CS(=O)(=O)CCC(=O)N1CCc2ccc(Oc3ccc(C(F)(F)F)cc3)c(Br)c2C1 [P-0205, 1-(8-bromo-7-(4-(trifluoromethyl)phen-oxy)-3,4-dihydroisoquin-olin-2(1H)-yl)-3-(methyl-sulfonyl)propan-1-one] | 0.001 to 10
3 | CS(=O)(=O)CCC(=O)N1CCc2ccc(Oc3ccc(C(F)(F)F)cc3)c(-c3cnn(CC4CC4)c3)c2C1 [P-0206, 1-(8-(1-(cyclopropyl-methyl)-1H-pyrazol-4-yl)-7-(4-(trifluorometh-yl)phenoxy)-3,4-dihydro-isoquinolin-2(1H)-yl)-3-(methylsulfonyl)-propan-1-one] | 0.001 to 10
4 | CS(=O)(=O)CCC(=O)N1CCc2ccc(Oc3ccc(C(F)(F)F)cc3)c(-c3ccc(C4CC4)nc3)c2C1 [P-0207, 1-(8-(6-cyclopropylpyr-idin-3-yl)-7-(4-(trifluoro-methyl)phenoxy)-3,4-dihydroisoquinolin-2(1H)-yl)-3-(methylsul-fonyl)propan-1-one] | 0.001 to 10
5 | CS(=O)(=O)CCC(=O)N1CCc2ccc(Oc3ccc(C(F)(F)F)cc3)c(-n3cc(C(F)(F)F)cn3)c2C1 [P-0208, 3-(methylsulfonyl)-1-(8-(4-(trifluoromethyl)-1H-pyrazol-1-yl)-7-(4-(trifluoromethyl)phen-oxy)-3,4-dihydroisoquin-olin-2(1H)-yl)propan-1-one] | 0.001 to 10
6 | CCC1c2cc(Oc3ccc(C(F)(F)F)cc3)ccc2CCN1C(=O)CCS(C)(=O)=O (centres unmarked) [P-0209, 1-(1-ethyl-7-(4-(trifluoro-methyl)phenoxy)-3,4-dihydroisoquinolin-2(1H)-yl)-3-(methylsul-fonyl)propan-1-one] | 0.001 to 10
7 | CS(=O)(=O)CCC(=O)N1CCc2ccc(Oc3ccc(C(F)(F)F)cc3)cc2C1C1CCN(C(=O)C2CC2)CC1 (centres unmarked) [P-0210, 1-(1-(1-(cyclopropanecarbonyl)piperidin-4-yl)-7-(4-(trifluoromethyl)phenoxy)-3,4-dihydroisoquinolin-2(1H)-yl)-3-(methylsulfonyl)propan-1-one] | 0.001 to 10
8 | CS(=O)(=O)CCC(=O)N1CCc2ccc(Oc3ccc(C(F)(F)F)cc3)cc2C1C1CCOCC1 (centres unmarked) [P-0211, 3-(methylsulfonyl)-1-(1-(tetrahydro-2H-pyran-4-yl)-7-(4-(trifluorometh-yl)phenoxy)-3,4-dihydro-isoquinolin-2(1H)-yl)-propan-1-one] | 0.001 to 10
9 | CS(=O)(=O)CCC(=O)N1CCc2ccc(Oc3ccc(C(F)(F)F)cc3)cc2C1C1CCC(C(F)(F)F)CC1 (centres unmarked) [P-0212, 3-(methylsulfonyl)-1-(1-(4-(trifluoromethyl)-cyclohexyl)-7-(4-(trifluoromethyl)phen-oxy)-3,4-dihydroisoquin-olin-2(1H)-yl)propan-1-one] | 0.001 to 10
10 | CC(=O)N1CCC(c2c(Oc3ccc(C(F)(F)F)cc3)ccc3c2CN(C(=O)CCS(C)(=O)=O)CC3)CC1 [P-0213, 1-(8-(1-acetylpiperidin-4-yl)-7-(4-(trifluorometh-yl)phenoxy)-3,4-dihydro-isoquinolin-2(1H)-yl)-3-(methylsulfonyl)pro-pan-1-one] | 0.001 to 10
11 | CC(=O)N1CC=C(c2c(Oc3ccc(C(F)(F)F)cc3)ccc3c2CN(C(=O)CCS(C)(=O)=O)CC3)CC1 [P-0214, 1-(8-(1-acetyl-1,2,3,6-tetrahydropyridin-4-yl)-7-(4-(trifluoromethyl)-phenoxy)-3,4-dihydroiso-quinolin-2(1H)-yl)-3-(methylsulfonyl)propan-1-one] | 10 to 100
12 | CC(=O)N1CCC(c2c(Oc3ccc(C(F)(F)F)cc3)ccc3c2CN(C(=O)CCS(C)(=O)=O)CC3)C1 (centres unmarked) [P-0215, 1-(8-(1-acetylpyrrolidin-3-yl)-7-(4-(trifluorometh-yl)phenoxy)-3,4-dihydro-isoquinolin-2(1H)-yl)-3-(methylsulfonyl)pro-pan-1-one] | 10 to 100
13 | CC(=O)N1CC(Cc2c(Oc3ccc(C(F)(F)F)cc3)ccc3c2CN(C(=O)CCS(C)(=O)=O)CC3)C1 [P-0216, 1-(8-((1-acetylazetidin-3-yl)methyl)-7-(4-(trifluoromethyl)phen-oxy)-3,4-dihydroisoquin-olin-2(1H)-yl)-3-(methyl-sulfonyl)propan-1-one] | 0.001 to 10
14 | CCC1c2cc(Oc3ccc(C(F)(F)F)cc3)ccc2CCN1C(=O)CNC(N)=O (centres unmarked) [P-0219, 1-(2-(1-ethyl-7-(4-(trifluoromethyl)phen-oxy)-3,4-dihydroisoquin-olin-2(1H)-yl)-2-oxoeth-yl)urea] | 0.001 to 10
15 | CS(=O)(=O)CCC(=O)N1CCc2ccc(Oc3ccc(C(F)(F)F)cc3)c(/C=C/C3CC3)c2C1 [P-0220, (E)-1-(8-(2-cyclopropyl-vinyl)-7-(4-(trifluoro-methyl)phenoxy)-3,4-dihydroisoquinolin-2(1H)-yl)-3-(methylsul-fonyl)propan-1-one] | 0.001 to 10
16 | CC(C)=Cc1c(Oc2ccc(C(F)(F)F)cc2)ccc2c1CN(C(=O)CCS(C)(=O)=O)CC2 [P-0221, 1-(8-(2-methylprop-1-en-1-yl)-7-(4-(trifluorometh-yl)phenoxy)-3,4-dihydro-isoquinolin-2(1H)-yl)-3-(methylsulfonyl)pro-pan-1-one] | 0.001 to 10
17 | CS(=O)(=O)CCC(=O)N1CCc2ccc(Oc3ccc(C(F)(F)F)cc3)c(/C=C/C3CCNCC3)c2C1 [P-0222, (E)-3-(methylsulfonyl)-1-(8-(2-(piperidin-4-yl)-vinyl)-7-(4-(trifluoro-methyl)phenoxy)-3,4-dihydroisoquinolin-2(1H)-yl)propan-1-one] | 0.001 to 10
18 | C=CC(=O)N1CCC(C2c3cc(Oc4ccc(C(F)(F)F)cc4)ccc3CCN2C(=O)CCS(C)(=O)=O)CC1 (centres unmarked) [P-0223, 1-(4-(2-(3-(methylsulfon-yl)propanoyl)-7-(4-(trifluoromethyl)phen-oxy)-1,2,3,4-tetrahydro-isoquinolin-1-yl)piper-idin-1-yl)prop-2-en-1-one] | 0.001 to 10
19 | COC(=O)[C@@H]1Cc2ccc(Oc3ccc(C(F)(F)F)cc3)cc2CN1C(=O)CCS(C)(=O)=O [P-0224, methyl (S)-2-(3-(methyl-sulfonyl)propanoyl)-7-(4-(trifluoromethyl)-phenoxy)-1,2,3,4-tetra-hydroisoquinoline-3-carboxylate] | 0.001 to 10
20 | CS(=O)(=O)c1nccc(N2CCc3ccc(Oc4ccc(C(F)(F)F)cc4)cc3C2)n1 [P-0226, 2-(2-(methylsulfonyl)-pyrimidin-4-yl)-7-(4-(trifluoromethyl)phen-oxy)-1,2,3,4-tetrahydro-isoquinoline] | 0.001 to 10
21 | CS(=O)(=O)c1ccnc(N2CCc3ccc(Oc4ccc(C(F)(F)F)cc4)cc3C2)c1 [P-0227, 2-(4-(methylsulfonyl)pyr-idin-2-yl)-7-(4-(trifluoro-methyl)phenoxy)-1,2,3,4-tetrahydroisoquinoline] | 0.001 to 10
22 | NC(=O)c1cccc(N2CCc3ccc(Oc4ccc(C(F)(F)F)cc4)cc3C2)n1 [P-0228, 6-(7-(4-(trifluoromethyl)-phenoxy)-3,4-dihydro-isoquinolin-2(1H)-yl)-picolinamide] | 0.001 to 10

same assay, conditions: MSTO-211H+12XGTIIC cell line, luciferase signal normalized to cell viability, 24 hours compound incubation; read-out: MSTO-211H GMean IC50 (uM) Cell Assay Reporter Cell Variant: TEAD

Row | Structure (SMILES) | IC50 [µM]
23 | CC(=O)N1CCC(C2c3cc(Oc4ccc(C(F)(F)F)cc4)ccc3CCN2C(=O)CCS(C)(=O)=O)C1 (centres unmarked) [P-0204, 1-(1-(1-acetylpyrrolidin-3-yl)-7-(4-(trifluorometh-yl)phenoxy)-3,4-dihydro-isoquinolin-2(1H)-yl)-3-(methylsulfonyl)-propan-1-one] | 0.001 to 10
